Source: patent US8318898B2, “Synthetic peptides for use as inhibitors of neurotransmitter secretion and as inducers of cellular relaxation” (Universite de Lausanne, priority 2005, dated 2012)
Like-named read-outs stand apart in the source and are kept apart here.

How the values were obtained:
PC12-ES cells = assay: Evoked neurotransmitter secretion by undifferentiated PC12-ES cells, furin inhibitor and arginine rich peptides; type: cell-based, rat; conditions: potassium 80 mM, 15 minutes
rat lung fibroblast (LF) = assay: Cell contraction/relaxation on wrinkling silicone substrate, live videomicroscopy; type: cell-based; conditions: 10 μM and 50 μM
Description: To study the effect(s) of the peptides on muscle cells, which associate with neurosecretory cells at neuromuscular junctions, peptides were cultured with rat lung fibroblast (LF) grown over wrinkling substrate (silicon) which can mimic the effects of contraction. These cells have a myofibroblastic phenotype, e.g., production of TGF-β, which make them suitable for cellular contraction/relaxation studies.
Wrinkling silicone substrates were prepared as essentially described previously (Harris, et al., Science. 208:177-179, 1980; Hinz, et al., Mol Biol Cell. 12:2730-41, 2001). Briefly, 50 μl of silicone (poly dimethyl siloxane; 30.000 centistokes, Dow Corning, Midland, Mich.) were deposited onto a 35 mm round glass coverslip at the bottom of a self-made observation chamber, which was centrifuged at 1.000 rpm for 2 minutes to spread the viscous fluid. The silicone surface was then crosslinked by passing it through a Bunsen flame; a flaming time of 1 second produced a surface stiffness that restricted wrinkle formation to fibroblasts with high contractile force (Hinz et al., supra). The polymerized silicone surface was finally coated with 10 μg/ml collagen type I (Sigma) for 2 hours at 37° C. Lung fibroblast cells were seeded at a density of 3.5×10^3 cells/cm^2 and cultured for 1-2 days before the experiment. […]

PC12 cells = assay: Inhibition of [3H]norepinephrine neurosecretion by PC12 cells; type: cell-based, rat; conditions: for inhibition of secretion, stability test: 100 μM
Description: Using the neurosecretion assay described above, peptides fused to the TAT-PTD (L-TAT) were tested for inhibition of neurotransmitters and compared to use of L-TAT alone (SEQ ID NO: 3). In vitro screening for synthetic peptides capable of efficiently and selectively blocking neurotransmitter release in the PC12 cell line grown under defined conditions was performed.
PC12 cells were washed with DMEM-WM (Dulbecco's Modified Eagle Medium (GIBCO cat. no. 31968) completed with 25 units of penicillin and streptomycin each) and loaded for 1-2 h with [^3H] norepinephrine (NE; 0.5 μCi/ml) in DMEM-CM (DMEM-WM complemented with 6% horse serum and 6% fetal calf serum). Cells were washed for 1 h with DMEM-WM, and then washed 2 times at 5-minute intervals. Basal release was determined by a 15-minutes incubation with CaSB-glucose 5 mM K^+ (CaSB-glucose: 140 mM NaCl, 5 mM KCl, 2 mM CaCl2, 11 mM glucose, [pH 7.4]). The peptides were added to the cells at defined concentrations after loading with NE but before induction of secretion. Cells were depolarized with 85 mM K^+ (CaSB-glucose with Na^+ reduced accordingly) for 15 minutes to determine stimulated release. Superfusate (1 ml) was removed to tubes. Adherent cells were solubilized in CaSB-glucose-0.1% Triton (1 ml/well). The quantities of released and non-released radiolabeled neurotransmitter were determined by liquid scintillation counting of cleared superfusates and cell lysates, respectively. Total uptake was calculated by addition of released and retained radioactivity, and the percentage release was as calculated (released counts/total uptake counts)×100. Results were also expressed as percent inhibition of neurosecretion.

Structure (SMILES): N=C(N)NCCC[C@H](NC(=O)CNC(=O)[C@H](Cc1ccc(O)cc1)NC(=O)CN)C(=O)N[C@@H](CCCCN)C(=O)N[C@@H](CCCCN)C(=O)N[C@@H](CCCNC(=N)N)C(=O)N[C@@H](CCCNC(=N)N)C(=O)N[C@@H](CCC(N)=O)C(=O)N[C@@H](CCCNC(=N)N)C(=O)N[C@@H](CCCNC(=N)N)C(=O)N[C@@H](CCCNC(=N)N)C(=O)NCC(=O)O [L-Tat]
- inhibition of evoked neurotransmitter secretion by PC12-ES cells (PC12-ES cells; 10 μM): 24.6%
- inhibition of evoked neurotransmitter secretion by PC12-ES cells (PC12-ES cells; 100 μM): 56.4%
- relaxing effect on lung myofibroblasts on silicon substrate (rat lung fibroblast (LF)): slow but constant loss of silicon substrate wrinkles and cell detachment
- dose dependence of inhibition of neurosecretion (PC12 cells): dose dependent inhibition
- inhibition of secretion, stability test (PC12 cells; 0 hours): 50%
- inhibition of secretion, stability test (PC12 cells; 1 hour): 38%
- inhibition of secretion, stability test (PC12 cells; 24 hours): 35%
- inhibition of secretion, stability test (PC12 cells; 48 hours): 39%
- inhibition of secretion, stability test (PC12 cells; No Serum): 65%
- dose dependence of inhibition of neurosecretion (PC12 cells; listed as L-Bel1): dose dependent
- inhibition of PC12 neurotransmitter secretion (PC12 cells; peptide 10 μM): >20%
- inhibition of PC12 neurotransmitter secretion (PC12 cells; peptide 50 μM): 50%
- inhibition of PC12 neurotransmitter secretion (PC12 cells; peptide 100 μM): 55%
- inhibition of PC12 neurotransmitter secretion (PC12 cells; peptide 100 μM, listed as L-Bel1): more than 60%
- inhibition of PC12 neurotransmitter secretion (PC12 cells; peptide 250 μM): 70%
